In US7560428B2, “Hair growth promoting oligopeptides” (Sumitomo Electric Industries, Ltd., priority 2004, dated 2009):
Entries after “also recorded” stand apart in the source; their conditions may differ. No end group written: not given here. *: point of attachment. KMUA = N-κ-maleimidoundecanoic acid-derived modifying group bound to a cysteine residue, O=C(O)CCCCCCCCCCN1C(=O)CC(*)C1=O; BMPA = N-β-maleimidopropionic acid-derived modifying group bound to a cysteine residue; Hexanoyl(6-maleimido) = O=C1C=CC(=O)N1CCCCCC(=O)*

Tested on: AHF (antigen recognized by the monoclonal antibody mAb27)
Experiment: Hair growth promoting activity in cultured mouse skin tissue: strength of the mAb27 reaction (AHF band) by Western blot
Assay type: cell-based, ICR baby mice
Conditions: test oligopeptide 20 μM, skin tissue cultured at 37° C. for 6 days, versus PBS control; FIGS. 4 and 5
Source text: The skin tissues of the upper jaw of ICR baby mice with an age of 12 days old were recovered under a stereoscopic microscope. The skin tissues were collected from both the left and right sides of the upper jaw, and the tissues were recovered from the total 5 mice. The skin sections recovered from the 5 mice were divided into the skin sections from the left side (used as a control) and those from the right side (used as a test oligopeptide). Thereafter, 5 skin sections were placed on a single nuclepore membrane (pore size: 8 μm; diameter: 13 mm). The skin sections were observed under a stereoscopic microscope, and the outside thereof was disposed on the front. 500 μl of Dulbecco's MEM/Ham F12 medium containing 1% BSA was added to 2 wells of a 24-well dish. Thereafter, a test oligopeptide solution (solvent: PBS) was added to one well to a final concentration of 20 μM, and only a solvent (PBS) as a control was added at the same amount to the other well. As test oligopeptides, unmodified oligopeptides and modified oligopeptides produced in (1) above were used.
Each of the membranes on which the skin tissues were placed was put on the aforementioned solution filled in the well, and it was then cultured at 37° C. for 6 days. From each membrane, 5 tissue sections were recovered in 100 μl of an SDS sample buffer (0.02 g/ml SDS, 0.2 g/ml glycerol, pH 6.8). The recovered sections were then dissolved therein using an ultrasonic crusher. The control was treated in the same manner. The solution obtained by the aforementioned treatment was electrophoresed (35 mA, 1.5 hours) by SDS-PAGE (acrylamide: 4% to 20%), and it was then transferred to a PVDF membrane. Thereafter, it was incubated in a Tris buffer solution (TBST) containing 5% skimmed milk for 1 hour. Thereafter, the resultant was allowed to react with mAb27 (10 μg/ml in TBST) obtained in Example 2 for 1 hour, and it was then sufficiently washed with TBS. Thereafter, peroxidase-labeled anti-rat IgG (Amersham) was 1,000 times diluted with TBST, and the diluted solution was used as a secondary antibody. The secondary antibody was allowed to react with the above resultant product, and the obtained reaction product was then sufficiently washed. Thereafter, the strength of the reaction of mAb27 was examined using an ECL kit (Amersham).
The term “AHF” shown in FIGS. 4 and 5 represents an antigen recognized by the monoclonal antibody mAb27 (specifically, a protein consisting of 1,439 amino acid residues shown in SEQ ID NO: 11).

Substance | hair growth activity (thickness of AHF band detected with mAb27)
Ser-Ile-Glu-Gln-Ser-Xaa-Ala-Gln-Glu (SIEQSC(Hexanoyl(6-maleimido))AQE) [SEQ ID NO: 9] | particularly strong hair growth activity
Ser-Ile-Glu-Gln-Ser-Xaa-Asp [BMPA] (SIEQSC(BMPA)D) | strong hair growth activity
Ser-Ile-Glu-Gln-Ser-Xaa-Asp [EMCA] (SIEQSC(Hexanoyl(6-maleimido))D) | strong hair growth activity; also recorded: particularly strong
Ser-Ile-Glu-Gln-Ser-Xaa-Asp [KMUA] (SIEQSC(KMUA)D) | strong hair growth activity
Ser-Ile-Glu-Gln-Ser-Xaa-Asp-Gln-Asp-Glu (SIEQSC(Hexanoyl(6-maleimido))DQDE) [SEQ ID NO: 8] | particularly strong hair growth activity
Ser-Ile-Glu-Gln-Ser-Xaa-Glu-Gln-Glu (SIEQSC(Hexanoyl(6-maleimido))EQE) [SEQ ID NO: 10] | strong hair growth activity
